In patent publication US20040175383A1, “Methods and compositions for treatment of otitis media” (priority 2002, published 2004):
Read-outs that look alike come from different tables or passages of the source.

Assays:
[1] = tested on: MMP activity (tMMP, predominantly MMPs 2 and 9) in MEE samples; assay: MMP activity in human middle ear effusion samples in the presence of ilomastat (colorimetric synthetic substrate assay); format: biochemical; parameters: Inhibition of MMP activity, overall / Ilomastat-MMP Inhibition % (mean inhibition): concentration or dose not given beside the values; settings: for Ilomastat-MMP Inhibition % (mean inhibition) / MMP >30% Inhibition (percent of samples that had enzyme activity inhibited by >30%): MEE samples
Source text: Human Subjects & Sample Collection: Middle ear effusion (MEE) samples were collected from all consenting patients that presented to the investigators for the treatment of OM. Most samples were taken from subjects at the time of myringotomy, with or without tube placement, for recurrent acute otitis media (RAOM) and chronic otitis media with effusion (COME). Less commonly, samples were collected upon presentation with acute post-tympanostomy otorrhea (APTO) or with chronic suppurative otitis media (CSOM). Samples were aspirated with a Juhn Tymp-Tap (Medtronic-Xomed, Jacksonville, Fla.). The aspiration device was rinsed—and sample diluted—with 500 μl of normal saline and immediately placed on ice for transport to the investigators' laboratories. Samples were centrifuged to remove cellular material then divided into aliquots and frozen until batch processing could be performed.
Protease and Inhibition Analysis: Active (aMMP) and proenzyme (pMMP) forms of MMPs 2 and 9 were measured using a gelatin zymography technique. MMP activity (tMMP, but predominantly MMPs 2 and 9) present in MEE samples was measured using a […] assay that uses a synthetic substrate that reduces Ellmans reagent upon cleavage. Because two different activity assays were used that detected different types and levels of MMPs, a direct comparison between aMMP, pMMP and tMMP was not considered valid. Human neutrophil elastase (HNE) activity was measured using a standard technique. Results were expressed as change in absorbance over time (mAU/min). […] Samples with excessive activity levels were tested by serial dilution. MMP activity was measured in the presence of physiologically deliverable levels of ilomastat.
Statistical Analysis: An analysis of variance was performed on the enzyme activities and mean inhibition of activities to determine if there were differences activities across diagnoses, middle ear findings. If there were statistically significant differences, […] tests were performed. […] The distribution of patients with an activities greater than 3 mAU/min and inhibition greater than 30% was tested using Fisher's exact test to determine if there was a difference in these distributions across diagnoses.

[2] = tested on: inner ear / hearing (electrocochleographic thresholds); assay: Ototoxicity study in chinchilla with Eustachian tube obstruction, weekly transbullar injection of protease inhibitors; settings: applied to the middle ear
Protocol: (§1) Prospective, randomized, controlled trial in the chinchilla model.
(§2) After completing baseline auditory testing and bilateral transpalatal obstruction of the Eustachian tube (ETO), chinchillas received weekly transbullar injections of protease inhibitor (alpha 1-antitrypsin, ilomastat, or both), vehicle, or saline. After one month, hearing was tested and the animals were sacrificed. Temporal bone histopathology was performed.
(§3) A total of 96 healthy adult chinchillas of either sex, 400-600 grams, were used in this experiment. Prior to entry into the study, all animals were otomicroscopically free of middle ear pathology. All animals underwent auditory testing and bilateral transpalatal obstruction of the Eustachian tube, followed by immediate transbullar injection (across the thin bone covering the dorsal aspect of the middle ear) of saline or vehicle solution, with or without protease inhibitor. Thus, there were five treatment groups: saline, vehicle solution, vehicle with alpha 1-antitrypsin (100 μg /ml), vehicle with ilomastat (100 μg /ml), and vehicle with alpha 1-antitrypsin and ilomastat (100 μg /ml of each). Weekly thereafter, animals received a light anesthetic for ear examinations, transbullar sampling of the middle ear fluid, and transbullar reinjection of saline or the vehicle +/− protease inhibitor. One month after ETO, animals were anesthetized, middle ear fluid was removed, and auditory testing was performed immediately prior to sacrifice. Temporal bones were harvested for histopathological analysis.
(§4) Ilomastat was prepared by substituting alpha 1-antitrypsin. Vehicle was similarly prepared, without the addition of any protease inhibitor. Injectable, 0.9% normal saline was used as the non-treatment control.
(§5) Briefly, the palate was split and the Eustachian tube orifices were bluntly palpated. The orifices were denuded of mucosa, the deeper tissues cauterized, and the lumen packed with Gelfoam sponge. The palate was reapproximated with a single layer of polyglycolic acid sutures.
(§6) Auditory Evaluation: Assessment of auditory thresholds was performed using electrocochleography. […] Electrocochleographic thresholds were measured for clicks and tone pips at 4, 8, 12, and 16 kHz. Stimulus generation was executed by an auditory electrophysiology workstation with SigGen™ and AeP™ software (Tucker-Davis Technologies, Gainesville, Fla.) and Etymotic transducers (ER-2, Elk Grove Village, Ill.). Stimuli were introduced with an insert earphone tube placed into the external auditory canal, just medial to the crus of the helix. Auditory thresholds were evaluated by decreasing stimulus intensity in 5 dB increments, from a maximum of 100 dB, until the waveform disappeared. At that point, the stimulus intensity was increased in 5 dB increments until the waveform re-emerged. […]

[3] = in vivo
Protocol: as §1, §2, §3, §4, §5, §6

[4] = tested on: acute otitis media induced by Streptococcus pneumoniae; format: in vivo, chinchilla
Protocol: All study animals were initially anesthetized to allow baseline hearing testing (electrocochleography and tympanometry) and to allow bacteria (Streptococcus pneumoniae) to be injected across the thin bone covering the middle ear (dorsal bulla) to induce a middle ear infection bilaterally. After allowing the inflammation to become established for 3 to 4 days, the ears were graded for severity of middle ear inflammation. Half the ears were injected with alpha 1-antitrypsin (100 mg/ml)half with saline. All animals received systemic antibacterial treatment (enrofloxacin). […] Assessment was given quantiatively according to the following table: [table] Hearing assessment were also performed throughout the study and following euthanasia at the end of study, temporal bone specimens were obtained from all ears for histopathological analysis.

[5] = tested on: inner ear / hearing (electrocochleographic thresholds); settings: in vivo
Protocol: as §1, §2, §3, §4, §5, §6

CNC(=O)[C@H](Cc1c[nH]c2ccccc12)NC(=O)[C@@H](CC(=O)NO)CC(C)C [Ilomastat, N-[2(R)-2(hydroxyamidocarbonylmethyl)-4-methylpentanoyl]-L-tryptophan methyl amide]
Ilomastat-MMP Inhibition % (mean inhibition) ([1]; diagnosis APTO): 41.2% | MMP >30% Inhibition (percent of samples that had enzyme activity inhibited by >30%) ([1]; diagnosis APTO): 57% | Ilomastat-MMP Inhibition % (mean inhibition) ([1]; diagnosis COME): 70.0% | MMP >30% Inhibition (percent of samples that had enzyme activity inhibited by >30%) ([1]; diagnosis COME): 86% | Ilomastat-MMP Inhibition % (mean inhibition) ([1]; diagnosis CSOM): 51.5% | MMP >30% Inhibition (percent of samples that had enzyme activity inhibited by >30%) ([1]; diagnosis CSOM): 40% | Ilomastat-MMP Inhibition % (mean inhibition) ([1]; diagnosis Cholesteatoma): 31.5% | MMP >30% Inhibition (percent of samples that had enzyme activity inhibited by >30%) ([1]; diagnosis Cholesteatoma): 71% | Ilomastat-MMP Inhibition % (mean inhibition) ([1]; diagnosis RAOM): 85.5% | MMP >30% Inhibition (percent of samples that had enzyme activity inhibited by >30%) ([1]; diagnosis RAOM): 100% | Ilomastat-MMP Inhibition % (mean inhibition) ([1]; diagnosis RAOM/COME): 81.4% | MMP >30% Inhibition (percent of samples that had enzyme activity inhibited by >30%) ([1]; diagnosis RAOM/COME): 100% | Percent of MEEs with significant inhibition (>30% reduction) of MMP activity ([1]; MEEs with significant MMP activity (>3 mAU/min)): 80% | Inhibition of MMP activity, overall ([1]; all MEE samples): 64% | Ototoxicity in the chinchilla model [2]: lack ototoxicity | Persistence of middle ear effusion at the final treatment day (percent of ears) [3]: 83%

rAAT: Recombinant alpha 1-antitrypsin, a serine protease inhibitor, expressed in recombinant yeast cells and purified by column chromatography
TM Score ([4]; Day 1, otomicroscopic scale 0 (normal) to 6 (perforated)): 0 | TM Score ([4]; Day 4, scale 0-6): 2.167 | TM Score ([4]; Day 6, scale 0-6): 4.17 | TM Score ([4]; Day 8, scale 0-6): 3.5 | TM Score ([4]; Day 10, scale 0-6): 2.8 | TM Score ([4]; Day 14, scale 0-6): 1.25 | TM Score ([4]; Day 16, scale 0-6): 0.75 | TM Score ([4]; Day 18, scale 0-6): 0.5 | TM Score ([4]; Day 20, scale 0-6): 0.5 | TM Score ([4]; Day 22, scale 0-6): 0 | TM Score ([4]; Day 24, scale 0-6): 0 | TM Score ([4]; Day 26, scale 0-6): 0 | TM Score ([4]; Day 28, scale 0-6): 0 | Middle ear inflammation by otomicroscopy, compared with saline ([4]; otic administration, with systemic enrofloxacin): mitigated the inflammatory process more rapidly than saline | Time to resolution of clinical manifestations of otitis media ([4]; single application of rAAT, control 26 days): 22 days | Persistence of middle ear effusion at the final treatment day (percent of ears) [3]: 100% | Ototoxicity in the chinchilla model [5]: lack ototoxicity
